From article PMC11249776, “Synthesis of Structural ADP-Ribose Analogues as Inhibitors for SARS-CoV-2 Macrodomain 1” (Organic Letters, 2024)

Biological target: T1, SARS-CoV-2 NSP3 macrodomain (Severe acute respiratory syndrome coronavirus 2, UniProt P0DTD1)
T1 construct: SARS-CoV-2 NSP3 macrodomain
Assay: Mac1 HTRF assay (displacement of ADP-ribose conjugated biotin peptide)
Format: binding
Details: for Mac1 inhibition / affinity in words: qualitative statement

Structure (SMILES): C#CC1OC(COP(=O)(O)OP(=O)(O)OCC2OC(n3cnc4c(N)ncnc43)C(O)C2O)C(O)C1O (stereo not shown) [Compound 5]
- IC50: 2400 ± 200 nM

Structure (SMILES): COC1OC(COP(=O)(O)OP(=O)(O)OCC2OC(n3cnc4c(N)ncnc43)C(O)C2O)C(O)C1OCc1ccccc1 (stereo not shown) [Compound 6]
- IC50: > 200000 nM
- Mac1 inhibition / affinity in words: poor affinity

Structure (SMILES): [N-]=[N+]=NC1OC(COP(=O)(O)OP(=O)(O)OCC2OC(n3cnc4c(N)ncnc43)C(O)C2O)C(O)C1OCc1ccccc1 (stereo not shown) [Compound 7]
- IC50: 80000 ± 1700 nM
- Mac1 inhibition / affinity in words: poor affinity

Structure (SMILES): COC1OC(COP(=O)(O)OP(=O)(O)OCC2OC(n3cnc4c(N)ncnc43)C(O)C2O)C(F)C1O (stereo not shown) [Compound 8]
- IC50: > 200000 nM
- Mac1 inhibition / affinity in words: drastically diminished binding affinity

Structure (SMILES): CON=C1C(COP(=O)(O)OP(=O)(O)OCC2OC(n3cnc4c(N)ncnc43)C(O)C2O)OC(OC)C1O (stereo not shown) [Compound 9]
- IC50: > 200000 nM

Structure (SMILES): CO[C@H]1O[C@H](COP(=O)(O)OP(=O)(O)OC[C@H]2O[C@@](C#N)(c3ccc4c(N)ncnn34)[C@H](O)[C@@H]2O)[C@@H](O)[C@H]1O [Compound 10, α-O-methyl-NDPr]
- IC50: 63 ± 5 nM

Structure (SMILES): N#C[C@@]1(c2ccc3c(N)ncnn23)O[C@H](COP(=O)(O)OP(=O)(O)OC[C@H]2O[C@H](N=[N+]=[N-])[C@H](O)[C@@H]2O)[C@@H](O)[C@H]1O [Compound 11, α-N3-NDPr]
- IC50: 30 ± 1.5 nM
